From patent US20090298068A1, “METHOD AND TEST KIT FOR THE DIAGNOSIS AND/OR MAKING PREDICTIONS ABOUT AND/OR FOR THE ASSESSMENT OF THE EFFICACY OF THERAPEUTIC AGENTS FOR THE TREATMENT OF OVARIAN CANCER AND METHOD OF PLANNING A REGIMEN FOR THE TREATMENT OF OVARIAN CANCER” (priority 2006, published 2009)

Tested on: TUSC3 expression in the hypermethylated MZ6 cell line
Experiment: Restoration of TUSC3 expression by DNA demethylation in ovarian cancer cell lines (real time RT-PCR)
Type: cell-based, human
Conditions: 72-hour treatment
Protocol: In addition, 32 ovarian cancer cell lines were studied, which were started from ovarian cancer tissue samples of 28 patients and cultivated as described (Mobus V1 Gerharz C D, Press U, et al, Morphological, immunohistochemical and biochemical characterization of 6 newly established human ovarian carcinoma cell lines. Int J Cancer. 1992; 52:76-84).
For bisulfite treatment, 1 μg genomic DNA was digested with the restriction enzymes Hind III and Xba I, precipitated, dissolved and denatured for 20 minutes in 0.35 M NaOH. Then, the DNA was treated in 8 cycles (2 hrs. 75° C. and 1 min. 95° C.) with 1.75 M sodium bisulfite, 5.23 M urea and 0.52 mM hydroquinone in a PCR cycler. Using the QIAEX II Gel Extraction Kit (Qiagen, Hilden, Germany), the DNA was cleaned and the reaction was ended with 0.32 M NaOH (20 min. 37° C.). Finally, the DNA was precipitated with 1 μl glycogen with NH4 acetate EtOH as the carrier, rinsed with 70% EtOH and dissolved in 40 μl H2O. […] The PCR products were analyzed on 3% agarose gel, stained with ethidium bromide. […] DNA demethylation of the cancer cell lines was carried out by a 72-hour treatment with 1 and 2.5 μM 5-aza-deoxycytidine (Sigma-Aldrich, St. Louis, Mo., USA) in cell culture medium, and the relative TUSC3 expression was evaluated by real time RT-PCR as described below. […]

SMILES: Nc1ncn([C@H]2C[C@H](O)[C@@H](CO)O2)c(=O)n1 [5-aza-deoxycytidine]
- TUSC3 expression, times greater than sham-treated samples (relative to B-2-microglobulin) (2.5 μM, MZ6 cell line, sham-treated below detection limit, mean of three experiments): at least 9.5 times
- Restoration of TUSC3 expression (1 and 2.5 μM, hypermethylated MZ6 cell line, concentration-dependent): restoration of TUSC3 expression
